Laboratory results published in the supplement of paper PMC10307832.

How the values were obtained:
Assay in all cases: relative viability (nuclei count vs DMSO), 5 days (fraction); higher = more cells survive
[1] = compound: CC(O)(CS(=O)(=O)c1ccc(F)cc1)C(=O)Nc1ccc(C#N)c(C(F)(F)F)c1 [Bicalutamide] + Cc1cc(Nc2cc(N3CCN(C)CC3)nc(Sc3ccc(NC(=O)C4CC4)cc3)n2)n[nH]1 [Tozasertib] (partner 0.1 µM)
Summary of the method: (§1)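 Five library-drug doses in √10 steps were combined with a fixed anchor-drug dose, or a single drug was given alone, by pin tool to lung cancer cell lines in 1536-well plates the day after seeding. Nuclei were stained and counted after 5 days. Relative viability is the nuclei count in treated wells over that in vehicle wells, taken as the median of duplicate plates.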

[2] = compound: CC(O)(CS(=O)(=O)c1ccc(F)cc1)C(=O)Nc1ccc(C#N)c(C(F)(F)F)c1 [Bicalutamide] + Nc1ncn([C@H]2C[C@H](O)[C@@H](CO)O2)c(=O)n1 [Decitabine] (partner 2 µM)
Summary of the method: as §1

[3] = compound: C(C(=O)C(=O)O)Br [Bromopyruvate] + CC1(C)CCC(c2ccc(Cl)cc2)=C(CN2CCN(c3ccc(C(=O)NS(=O)(=O)c4ccc(N[C@H](CCN5CCOCC5)CSc5ccccc5)c(S(=O)(=O)C(F)(F)F)c4)cc3)CC2)C1 [Navitoclax] (partner 0.5 µM)
Summary of the method: as §1

[4] = compound: CC(O)(CS(=O)(=O)c1ccc(F)cc1)C(=O)Nc1ccc(C#N)c(C(F)(F)F)c1 [Bicalutamide] + N=C(N)NC(=N)NCCc1ccccc1 [Phenformin] (partner 250 µM)
Summary of the method: as §1

Work on UMC-11 yielded a relative viability ([1]; first compound 0.08 µM) of 0.193, a relative viability ([1]; first compound 0.253 µM) of 0.184 and a relative viability ([1]; first compound 0.8 µM) of 0.191. The relative viability ([1]; first compound 2.53 µM) was 0.191, the relative viability ([2]; first compound 0.08 µM) was 0.535 and the relative viability ([2]; first compound 0.253 µM) was 0.507. The relative viability ([2]; first compound 0.8 µM) was 0.623, the relative viability ([2]; first compound 2.53 µM) was 0.555 and the relative viability ([3]; first compound 1 µM) was 0.289. For the same cell line, the relative viability ([3]; first compound 3.162 µM) was 0.291, the relative viability ([3]; first compound 10 µM) was 0.304 and the relative viability ([3]; first compound 31.62 µM) was 0.297. For the same cell line, the relative viability ([3]; first compound 100 µM) was 0.288, the relative viability ([4]; first compound 0.08 µM) was 0.35 and the relative viability ([4]; first compound 0.253 µM) was 0.319. For the same cell line, the relative viability ([4]; first compound 0.8 µM) was 0.372 and the relative viability ([4]; first compound 2.53 µM) was 0.302.
